In patent US20240174690A1, “ANNULATED 2-AMINO-3-CYANO THIOPHENES AND DERIVATIVES FOR THE TREATMENT OF CANCER” (BOEHRINGER INGELHEIM INTERNATIONAL GMBH, priority 2021, published 2024):
Like-named read-outs stand apart in the source and are kept apart here.

Columns and labels:
[1] = Metabolic (microsomal) stability assay, human liver microsomes (HLM); type: in vitro ADME; settings: predicted clearance as percent of liver blood flow, 1 μM
Method in brief: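 LC-MS/MS tracked parent disappearance at 0, 5, 15, 30 and 60 min in NADPH-initiated incubations with 1 mg/mL human microsomal protein and 1 μM compound at 37°C, pH 7.5. First-order fits gave intrinsic clearance, which was scaled up and reported as % QH. NADPH-free controls were also run.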

[2] = Plasma protein binding assay (PPB), equilibrium dialysis, 10% FCS in PBS; type: in vitro ADME; settings: for fraction unbound: bovine, read-out: PPB 10% FCS (% fu)
Method in brief: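 Test compound (1-10 μmol/L) in 10% FCS in PBS was dialysed for 3-5 h at 37° C versus PBS ± dextran across a semipermeable membrane. LC-MS of both compartments after protein precipitation gave Cserum and Cbuffer, from which the unbound fraction fu was derived.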

[3] = test system: KRAS G12V-dependent Ba/F3 cells; experiment: Ba/F3 proliferation assay, KRAS G12V; type: cell-based; settings: AlamarBlue;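 further: proliferation IC50 in KRAS G12V-dependent Ba/F3 cells read by AlamarBlue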
Method in brief: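 Proliferation of mutant-KRAS-driven Ba/F3 cells cultured without IL-3 is followed with AlamarBlue after compound addition. Curves are fitted from duplicate wells.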

SK-CO-1 cells = experiment: SK-CO-1 CTG proliferation assay (120 h) (CRC, G12V); type: cell-based; settings: SK-CO-1 cells (CRC, G12V), CTG 120 h
Method in brief: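 Compound exposure lasted 120 h in KRAS G12V SK-CO-1 cells seeded overnight at 500 cells/well in 10% FCS EMEM. CellTiter-Glo RLU normalised to DMSO wells gave percent viability, and a four-parameter model fit yielded IC50.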

NCI-H358 cells = experiment: NCI-H358 CTG proliferation assay (120 h) (NSCLC, G12C); type: cell-based, human; settings: Homo sapiens
Method in brief: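 IC50 values derive from four-parameter nonlinear regression of CellTiter-Glo viability (RLU relative to DMSO wells) after 120 h of exposure. Cells were plated in RPMI-1640 + 10% FCS at 2000 per well (assay 1) or 200 per well (assay 2). Untreated cells were measured at compound addition as T0.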

[4] = assay 2, CTG, read-out: H358 (assay 2) IC50

SMILES | HLM QH [1] | fraction unbound [2] | IC50 ([3]; Mus musculus, BaF3, 72 h) | IC50 (SK-CO-1 cells; Homo sapiens) | IC50 (NCI-H358 cells; [4]) | PPB 10% FCS (% fu) ([2]; fraction unbound) | IC50 ([3]; 72 h) | IC50 (SK-CO-1 cells) | IC50 (NCI-H358 cells; assay 1, CTG, read-out: H358 (assay 1) IC50)
C[C@H]1CN(C)CCCN1c1nc(-c2onc3c2CCC[C@@]32CCCc3sc(N)c(C#N)c32)cc(N2CCN(C)C3(CC3)C2)n1 [I-42] | 42% | – | – | – | – | – | – | – | –
C[C@H](Oc1cc(-n2ccc(C(=O)O)n2)nc(-c2noc3c2CCC[C@@]32CCCc3sc(N)c(C#N)c32)n1)[C@@H]1CCCN1C [II-24] | <24% | 0.48 | 8110 nM | 9250 nM | – | – | – | – | –
C[C@H](Oc1cc(N2CCN(C)C3(COC3)C2)nc(-c2onc3c2CCC[C@@]32CCCc3sc(N)c(C#N)c32)n1)[C@@H]1C[C@@H](F)CN1C [I-37] | 51% | 0.26 | 1340 nM | 1080 nM | 3890 nM | – | – | – | –
C[C@H](Oc1cc(N2CCNC3(COC3)C2)nc(-c2onc3c2CCC[C@@]32CCCc3sc(N)c(C#N)c32)n1)[C@@H]1CCCN1C [I-4] | <24% | – | 134 nM | 541 nM | 740 nM | – | – | – | –
C[C@H](Oc1cc(-c2ccn(C)n2)nc(-c2onc3c2CCC[C@@]32CCCc3sc(N)c(C#N)c32)n1)[C@@H]1CCCN1C [I-21] | 44% | – | – | – | – | 83 % fu | 6 nM | 30 nM | –
Cc1ccc(-c2cc(O[C@@H](C)[C@@H]3CCCN3C)nc(-c3onc4c3CCC[C@@]43CCCc4sc(N)c(C#N)c43)n2)cn1 [I-28] | <24% | 0.3 | 41 nM | 131 nM | 240 nM | – | – | – | –
C[C@H](Oc1cc(C2CCCO2)nc(-c2noc3c2CCC[C@@]32CCCc3sc(N)c(C#N)c32)n1)[C@@H]1CCCN1C (some centres unmarked) [II-44] | 31% | 0.39 | 14 nM | 193 nM | 398 nM | – | – | – | –
C[C@H](Oc1nc(-c2noc3c2CCC[C@@]32CCCc3sc(N)c(C#N)c32)cc(N2C[C@H](C)N[C@@H](C)C2)n1)[C@@H]1CCCN1C [II-46] | 27% | – | – | 655 nM | – | – | – | – | –
C[C@H](Oc1cc(-n2ccsc2=O)nc(-c2noc3c2CCC[C@@]32CCCc3sc(N)c(C#N)c32)n1)[C@@H]1CCCN1C [II-135] | 54% | 0.06 | 4 nM | 29 nM | – | – | – | – | –
C[C@H](Oc1cc(-c2cnn(C)n2)nc(-c2noc3c2CCC[C@@]32CCCc3sc(N)c(C#N)c32)n1)[C@@H]1C[C@@H](F)CN1C [II-28] | 51% | 0.09 | 27 nM | 433 nM | – | – | – | – | –
C[C@H](Oc1cc(N2CC[C@H](N3CCCCC3)C2)nc(-c2noc3c2CCC[C@@]32CCCc3sc(N)c(C#N)c32)n1)[C@@H]1CCCN1C [II-12] | <24% | 0.2 | 549 nM | 819 nM | – | – | – | – | –
C[C@H](Oc1cc([C@H]2CCN(C)C2)nc(-c2noc3c2CCC[C@@]32CCCc3sc(N)c(C#N)c32)n1)[C@@H]1CCCN1C [II-38] | <24% | 0.54 | 56 nM | 174 nM | – | – | – | – | –
C[C@H](Oc1cc(-n2ccc(C(=O)NC3COC3)n2)nc(-c2noc3c2CCC[C@@]32CCCc3sc(N)c(C#N)c32)n1)[C@@H]1CCCN1C [II-25] | <24% | 0.15 | 4 nM | 3 nM | – | – | – | – | –
C[C@H]1CN(C)CCCN1c1cc(N2CC[C@H](N(C)C)C2)nc(-c2noc3c2CCC[C@@]32CCCc3sc(N)c(C#N)c32)n1 [II-16] | <24% | 0.16 | 1640 nM | 1870 nM | – | – | – | – | –
C[C@H](Oc1cc(N2CCN(C)C3(CC3)C2)nc(-c2onc3c2CCC[C@@]32CCCc3sc(N)c(C#N)c32)n1)[C@@H]1CCCN1C [I-41] | <24% | – | 445 nM | 2760 nM | – | – | – | – | –
C[C@H](Oc1cc(N2CC(N(C)C)C2)nc(-c2noc3c2CCC[C@@]32CCCc3sc(N)c(C#N)c32)n1)[C@@H]1CCCN1C [II-7] | <24% | 0.43 | 196 nM | 1240 nM | – | – | – | – | –
C[C@H](Oc1nc(-c2onc3c2CCC[C@@]32CCCc3sc(N)c(C#N)c32)cc(N2CCN(C)C3(CC3)C2)n1)[C@@H]1CCCN1C [I-40] | 42% | 0.51 | – | – | – | – | – | – | –
C[C@H](Oc1cc(N2CCNC(C)(C)C2)nc(-c2noc3c2CCC[C@@]32CCCc3sc(N)c(C#N)c32)n1)[C@@H]1CCCN1C [II-32] | <24% | 0.31 | 1220 nM | 704 nM | – | – | – | – | –

SMILES | HLM QH [1] | fraction unbound [2] | IC50 ([3]; Mus musculus, BaF3, 72 h) | IC50 (SK-CO-1 cells; Homo sapiens) | IC50 (NCI-H358 cells; [4]) | PPB 10% FCS (% fu) ([2]; fraction unbound) | IC50 ([3]; 72 h) | IC50 (SK-CO-1 cells) | IC50 (NCI-H358 cells; assay 1, CTG, read-out: H358 (assay 1) IC50)
C[C@H](Oc1cc(N2CCN(C)C3(COC3)C2)nc(-c2noc3c2CCC[C@@]32CCCc3sc(N)c(C#N)c32)n1)[C@@H]1CCCN1C [II-13] | <24% | 0.24 | 247 nM | 896 nM | – | – | – | – | –
C[C@H]1CN(C)CCCN1c1cc(N2CCN(C)CC2)nc(-c2noc3c2CCC[C@@]32CCCc3sc(N)c(C#N)c32)n1 [II-30] | <24% | 0.64 | – | 9070 nM | – | – | – | – | –
C[C@@H]1CN(c2cc(O[C@@H](C)[C@@H]3CCCN3C)nc(-c3noc4c3CCC[C@@]43CCCc4sc(N)c(C#N)c43)n2)C[C@H](C)N1 [II-36] | <24% | 0.57 | 390 nM | 1120 nM | – | – | – | – | –
C[C@H](Oc1cc(N2CCNCC2)nc(-c2noc3c2CCC[C@@]32CCCc3sc(N)c(C#N)c32)n1)[C@@H]1CCCN1C [II-45] | – | 0.61 | 642 nM | 1790 nM | > 25000 nM | – | – | – | 969 nM
C[C@H](Oc1nc(-c2onc3c2CCC[C@@]32CCCc3sc(N)c(C#N)c32)cc(N2CCNC3(CC3)C2)n1)[C@@H]1CCCN1C [I-2] | 44% | 0.69 | – | – | – | – | – | – | –
C[C@H](Oc1cc(N2CCN(CCO)CC2)nc(-c2noc3c2CCC[C@@]32CCCc3sc(N)c(C#N)c32)n1)[C@@H]1CCCN1C [II-8] | <24% | 0.17 | 316 nM | 692 nM | – | – | – | – | –
C[C@H](O)Cn1ccc(-c2cc(O[C@@H](C)[C@@H]3CCCN3C)nc(-c3onc4c3CCC[C@@]43CCCc4sc(N)c(C#N)c43)n2)n1 [I-31] | <24% | 0.53 | 9 nM | – | 266 nM | – | – | – | –
C[C@H](Oc1cc(N2CCN(C)CC2)nc(-c2noc3c2CCC[C@@]32CCCc3sc(N)c(C#N)c32)n1)[C@@H]1CCCN1[C@@H]1CCOC1 [II-39] | 52% | 0.17 | – | 1240 nM | – | – | – | – | –
C[C@H](Oc1cc(N2C[C@@H](N(C)C)[C@@H](F)C2)nc(-c2noc3c2CCC[C@@]32CCCc3sc(N)c(C#N)c32)n1)[C@@H]1CCCN1C [II-11] | <24% | 0.89 | 324 nM | 800 nM | – | – | – | – | –
C[C@H](Oc1cc(N2C[C@H]3CN(C)C[C@H]3C2)nc(-c2noc3c2CCC[C@@]32CCCc3sc(N)c(C#N)c32)n1)[C@@H]1CCCN1C [II-33] | <24% | 0.68 | 657 nM | 1050 nM | – | – | – | – | –
C[C@H](Oc1cc(N2CC[C@H](N3CCCC3)C2)nc(-c2noc3c2CCC[C@@]32CCCc3sc(N)c(C#N)c32)n1)[C@@H]1CCCN1C [II-14] | <24% | 0.16 | 771 nM | 771 nM | – | – | – | – | –
C[C@H](Oc1cc(-c2ccn3ncnc3c2)nc(-c2onc3c2CCC[C@@]32CCCc3sc(N)c(C#N)c32)n1)[C@@H]1CCCN1C [I-33] | <24% | 0.31 | 14 nM | 181 nM | – | – | – | – | –
C[C@H](Oc1cc(N2C[C@H](C)N(C)[C@@H](C)C2)nc(-c2onc3c2CCC[C@@]32CCCc3sc(N)c(C#N)c32)n1)[C@@H]1CCCN1C [I-43] | <24% | 0.73 | 302 nM | 892 nM | – | – | – | – | –
C[C@H](Oc1cc([C@@H]2CCN(C)C2)nc(-c2noc3c2CCC[C@@]32CCCc3sc(N)c(C#N)c32)n1)[C@@H]1CCCN1C [II-37] | <24% | 0.71 | 177 nM | 562 nM | – | – | – | – | –
C[C@H](Oc1cc(N2CC3CCC(C2)N3)nc(-c2noc3c2CCC[C@@]32CCCc3sc(N)c(C#N)c32)n1)[C@@H]1CCCN1C [II-34] | <24% | 0.37 | 681 nM | 1240 nM | – | – | – | – | –
C[C@H](Oc1cc(-n2ccc(C(=O)N[C@H]3CCOC3)n2)nc(-c2onc3c2CCC[C@@]32CCCc3sc(N)c(C#N)c32)n1)[C@@H]1CCCN1C [I-57] | – | – | 1 nM | 4 nM | 6 nM | – | – | – | –
C[C@H](Oc1cc(N2CC[C@H](N(C)C)C2)nc(-c2noc3c2CCC[C@@]32CCCc3sc(N)c(C#N)c32)n1)[C@@H]1C[C@@H](F)CN1C [II-15] | <24% | 0.64 | 340 nM | 1250 nM | – | – | – | – | –
